Drawing on patent US20070178151A1, “Spray dried pharmaceutical compositions” (priority 2004, published 2007), this text covers solubility for one compound.

Converted amounts (≈) assume the structure as drawn.

The nature of the data set: aqueous solubility of talnetant. It is filed as physicochemical. The note with it: aqueous medium. From the text:
Typically drugs with low aqueous solubility are absorbed slowly across the walls of the gastrointestinal tract (GIT) due to poor dissolution of the solid in the GIT leading to a small diffusive driving force.

In the case of `CC[C@H](NC(=O)c1c(O)c(-c2ccccc2)nc2ccccc12)c1ccccc1` [Talnetant, (S)-(−)-N-(α-ethylbenzyl)-3-hydroxy-2-phenylquinoline4-carboxamide], the solubility is about 1 µg/mL (≈ 2.61 µM) (aqueous buffer, pH 7.0) and about 30 µg/mL (≈ 78.4 µM) (pH 1, simulated gastric fluid).
